Patent US20240393292A1, “ALLERGY ANTIGEN AND EPITOPE THEREOF” (HOYU CO., LTD., priority 2019, published 2024)

Tested on: IgE antibodies from patients
Test: Wheat epitope mapping (2): overlapping 10-amino-acid peptide fragments shifted by one amino acid;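 also: key = sequence deemed particularly important within the common 15-residue sequence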
Format: binding, human
Conditions: sequence without X
Summary of the method: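 Residual binding was banded as <30% none, 30–<50% poor, 50–<70% somewhat poor and ≥70% retained, relative to the parent overlapping sequence set to 100%. Values were chemiluminescent IgE signals from patient sera after subtracting secondary-antibody-only controls. The peptides were spot-synthesised 10-mers shifted by one amino acid.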

[1] = serum of patient G6 (adult, general immediate type allergy to wheat)
[2] = serum of patient G7 (adult, general immediate type allergy to wheat)
[3] = serum of patient G9 (adult, general immediate type allergy to wheat)

1494 (YLQPQQPISQ; REGION 1..10: note = epitope) [compound 1494]
Rank of partial sequence as epitope binding to IgE antibody [1]: Preferably

1495 (YLQPQQPI; REGION 1..8: note = epitope) [compound 1495]
Rank of partial sequence as epitope binding to IgE antibody [1]: Key

1499 (YLQPQQPISQ; REGION 1..10: note = epitope) [compound 1499]
Rank of partial sequence as epitope binding to IgE antibody [2]: More preferably

1500 (YLQPQQPIS; REGION 1..9: note = epitope) [compound 1500]
Rank of partial sequence as epitope binding to IgE antibody [2]: Preferably

1502 (LQPQQP; REGION 1..6: note = epitope) [compound 1502]
Rank of partial sequence as epitope binding to IgE antibody [2]: Key

1503 (QPISQQQA; REGION 1..8: note = epitope) [compound 1503]
Rank of partial sequence as epitope binding to IgE antibody [2]: Preferably

1505 (SQQQA; REGION 1..5: note = epitope) [compound 1505]
Rank of partial sequence as epitope binding to IgE antibody [2]: Key

1506 (YLQPQQP; REGION 1..7: note = epitope) [compound 1506]
Rank of partial sequence as epitope binding to IgE antibody [3]: Preferably

1507 (YLQPQ; REGION 1..5: note = epitope) [compound 1507]
Rank of partial sequence as epitope binding to IgE antibody [3]: Key

1509 (QVPLVQQ; REGION 1..7: note = epitope) [compound 1509]
Rank of partial sequence as epitope binding to IgE antibody (serum of patient P3 (WDEIA)): Preferably

1514 (QVPLVQQQQ; REGION 1..9: note = epitope) [compound 1514]
Rank of partial sequence as epitope binding to IgE antibody (serum of patient P4 (WDEIA)): Preferably

1518 (QVPLVQQ; REGION 1..7: note = epitope) [compound 1518]
Rank of partial sequence as epitope binding to IgE antibody (serum of patient P7 (WDEIA)): Preferably

1520 (QVPLVQQ; REGION 1..7: note = epitope) [compound 1520]
Rank of partial sequence as epitope binding to IgE antibody (serum of patient P8 (WDEIA)): Preferably

1523 (QVPLVQQQQF; REGION 1..10: note = epitope) [compound 1523]
Rank of partial sequence as epitope binding to IgE antibody (serum of patient P10 (WDEIA)): Further preferably

1524 (QVPLVQQQQ; REGION 1..9: note = epitope) [compound 1524]
Rank of partial sequence as epitope binding to IgE antibody (serum of patient P10 (WDEIA)): More preferably

1525 (LVQQQQFLG; REGION 1..9: note = epitope) [compound 1525]
Rank of partial sequence as epitope binding to IgE antibody (serum of patient P10 (WDEIA)): Preferably

1526 (VQQQ; REGION 1..4: note = epitope) [compound 1526]
Rank of partial sequence as epitope binding to IgE antibody (serum of patient P10 (WDEIA)): Key

1527 (QVPLVQQQQ; REGION 1..9: note = epitope) [compound 1527]
Rank of partial sequence as epitope binding to IgE antibody (serum of patient P12 (WDEIA)): More preferably

1528 (QVPLVQQ; REGION 1..7: note = epitope) [compound 1528]
Rank of partial sequence as epitope binding to IgE antibody (serum of patient P12 (WDEIA)): Preferably

1532 (QVPLVQQQ; REGION 1..8: note = epitope) [compound 1532]
Rank of partial sequence as epitope binding to IgE antibody (serum of patient P14 (WDEIA)): Preferably

1534 (QQQQFLG; REGION 1..7: note = epitope) [compound 1534]
Rank of partial sequence as epitope binding to IgE antibody (serum of patient P14 (WDEIA)): Preferably

1538 (LVQQQQFLGQ; REGION 1..10: note = epitope) [compound 1538]
Rank of partial sequence as epitope binding to IgE antibody (serum of patient P17 (WDEIA)): Further preferably

1539 (LVQQQQFLG; REGION 1..9: note = epitope) [compound 1539]
Rank of partial sequence as epitope binding to IgE antibody (serum of patient P17 (WDEIA)): More preferably

1540 (VQQQQFLG; REGION 1..8: note = epitope) [compound 1540]
Rank of partial sequence as epitope binding to IgE antibody (serum of patient P17 (WDEIA)): Preferably

1542 (QVPLVQQQQ; REGION 1..9: note = epitope) [compound 1542]
Rank of partial sequence as epitope binding to IgE antibody (serum of patient P21 (WDEIA)): More preferably

1543 (QVPLVQQ; REGION 1..7: note = epitope) [compound 1543]
Rank of partial sequence as epitope binding to IgE antibody (serum of patient P21 (WDEIA)): Preferably

1547 (QVPLVQQQQ; REGION 1..9: note = epitope) [compound 1547]
Rank of partial sequence as epitope binding to IgE antibody (serum of patient P34 (WDEIA)): More preferably

1548 (QVPLVQQQ; REGION 1..8: note = epitope) [compound 1548]
Rank of partial sequence as epitope binding to IgE antibody (serum of patient P34 (WDEIA)): Preferably

1550 (LVQQQQFLGQ; REGION 1..10: note = epitope) [compound 1550]
Rank of partial sequence as epitope binding to IgE antibody (serum of patient P34 (WDEIA)): More preferably

1551 (QQQQFLGQ; REGION 1..8: note = epitope) [compound 1551]
Rank of partial sequence as epitope binding to IgE antibody (serum of patient P34 (WDEIA)): Preferably

1555 (QVPLVQQQ; REGION 1..8: note = epitope) [compound 1555]
Rank of partial sequence as epitope binding to IgE antibody (serum of patient P35 (WDEIA)): Preferably

1556 (LVQQQ; REGION 1..5: note = epitope) [compound 1556]
Rank of partial sequence as epitope binding to IgE antibody (serum of patient P35 (WDEIA)): Key
